Laboratory results published in PMC7516806, “Hybrid Antimicrobial Peptide Targeting Staphylococcus aureus and Displaying Anti-infective Activity in a Murine Model” (Frontiers in Microbiology, 2020).
Positions of bridges follow the written chain, without caps; N, C: chain ends. Residues, ends and D or L forms follow the SMILES beside them.

Columns and labels:
[1] = tested on: S. aureus ATCC 29213; assay: SEM and TEM characterization of membrane damage; assay type: cell-based, Staphylococcus aureus
Protocol: Bacterial membrane damage induced by the peptide was visualized using scanning electron microscopy (SEM). S. aureus ATCC 29213 was washed three times using PBS after growing to the mid-log phase and diluted to an OD600 = 0.2. The bacteria were incubated for 30 min with peptide, and the bacterial growth in PBS was used as the control. The cells were washed twice with PBS and fixed with 2.5% (w/v) glutaraldehyde at 4°C overnight. The bacterial cells were dehydrated with a graded series of ethanol (50, 70, 90, and 100%) for 10 min at each step. The samples were transferred to a mixture (v: v = 1:1) of alcohol and tert-butanol for 30 min and tert-butanol alone for 1 h. The dried bacterial specimens, which were obtained using a critical point dryer, were coated and visualized under a field emission scanning electron microscope (Hitachi S-4800, Japan).
The processing method of the samples for transmission electron microscopy (TEM) was the same as the treatment for SEM. The samples were then prefixed with 2.5% glutaraldehyde at 4°C overnight, post-fixed with osmium tetroxide for 70 min, and washed twice with PBS (pH 7.2). Subsequently, the samples were dehydrated in different concentrations of ethanol (50, 70, and 90%) for 8 min in series and 10 min in 100% ethanol twice and then transferred to a mixture (v:v = 1:1) of 100% ethanol and acetone for 10 min. […]

[2] = tested on: S. aureus 29213; assay: Cytoplasmic membrane depolarization, diSC3-5; assay type: cell-based, Staphylococcus aureus; conditions: 0.4 μM diSC3-5, 100 mM KCl, ex 622 nm, em 670 nm
Protocol: The dye diSC3-5 was employed to assay cytoplasmic membrane depolarization activities ([Shao et al., 2018]). S. aureus 29213 was diluted to an OD600 = 0.05 after washing three times with buffer (5 mM HEPES, 5 mM glucose, pH 7.4) when the bacteria grew to mid-log phase. Then, diSC3-5 at a final concentration of 0.4 μM was added into the medium and incubated for 1–1.5 h. The final concentration of 100 mM KCl was then added to the solution for 15 min. The peptides were added to 12-well plates, which were filled with 2 mL of cell suspension. An F-4500 fluorescence spectrophotometer (Hitachi, Japan) was employed to measure the fluorescence value at an excitation wavelength of 622 nm and an emission wavelength of 670 nm. Maximal augmentation was monitored, and the fluorescence of the mixture of bacteria and dye served as the blank control.

[3] = tested on: GM-CSF; assay: Cytokine ELISA in infected skin; assay type: in vivo, ICR mice; conditions: 24 h after treatment, P < 0.05
Protocol: (§1) To assess the antimicrobial activity of the peptide in vivo, a mouse model of subcutaneous infection was used ([Huang et al., 2011a]; [Omolo et al., 2017]). Female Institute for Cancer Research (ICR) mice (SPF, 20–25 g) were purchased from WeiTonglihua Co., Ltd. (Beijing, China), with eight animals per group. The mice were shaved on their backs and disinfected. S. aureus 29213 (100 μL) at a concentration of 1 × 10^8 CFU/mL was injected into the superficial skin of the mice. The mice were divided into four groups (n = 4), as follows: S. aureus + saline, S. aureus + S2 (80× MIC, 100 μL), S. aureus + vancomycin (Van) (80× MIC, 100 μL), and saline. S2, vancomycin, and saline were injected at the same site 1 h after infection. The mice were monitored over 24 h in an environmentally controlled room at 25 ± 1°C and 55 ± 5% relative humidity with a 12 h light/dark cycle.
(§2) The mice were treated as described above. Skin samples were treated according to the manufacturer’s instructions. The levels of tumor necrosis factor-alpha (TNF-α), interleukin-6 (IL-6), and granulocyte-macrophage colony-stimulating factor (GM-CSF) in infected skin were measured using enzyme-linked immunosorbent assay (ELISA) kits following the manufacturer’s instructions.

[4] = tested on: IL-6; assay: Cytokine ELISA in infected skin; assay type: in vivo, ICR mice; conditions: 24 h after treatment, P < 0.05
Protocol: as §1, §2

[5] = tested on: TNF-α; assay: Cytokine ELISA in infected skin; assay type: in vivo, ICR mice; conditions: 24 h after treatment, P < 0.05
Protocol: as §1, §2

[6] = tested on: S. aureus 29213; assay: Mouse model of subcutaneous infection; assay type: in vivo, ICR mice; conditions: 80× MIC
Protocol: as §1
To image the infected skin tissues, the mice were euthanized 24 h after the injection of S. aureus. Samples were fixed in 4% buffered paraformaldehyde and subjected to hematoxylin/eosin (HE) staining. The antimicrobial activity in vivo was determined by colony counting of infected skin samples. Skin homogenates were serially diluted in saline and incubated at 37°C for 24 h.

[7] = tested on: P. aeruginosa 27853; assay: MIC, modified microtiter dilution; assay type: cell-based, Pseudomonas aeruginosa; conditions: MHB, 2–7 × 10^5 CFU/ml, 37°C, 24 h, no turbidity, at least three independent repeats
Text: The experiment was repeated at least three times independently.

[8] = tested on: Staphylococcus aureus 29213; assay: Propidium iodide uptake assay; assay type: cell-based; conditions: 0.5 × MIC, MIC and 2 × MIC; 10 μg/mL PI; ex 535 nm, em 617 nm
Protocol: Staphylococcus aureus 29213 was washed three times with buffer (5 mM HEPES, 5 mM glucose, pH 7.4) after the bacterium grew to the mid-log phase and then diluted to an OD600 = 0.05. Propidium iodide was then added to the final concentration of 10 μg/mL and incubated for 30 min at 4°C. The peptides were added to 12-well plates, which were filled with 2 mL of the cell suspension. An F-4500 fluorescence spectrophotometer (Hitachi, Japan) was employed to measure the fluorescence value at an excitation wavelength of 535 nm and an emission wavelength of 617 nm. Maximal augmentation was monitored, and the fluorescence of the mixture of bacteria and dye served as the blank control ([Morita et al., 2015]).

CC(C)C[C@H](NC(=O)[C@H](CC(C)C)NC(=O)[C@H](Cc1c[nH]c2ccccc12)NC(=O)[C@H](Cc1c[nH]c2ccccc12)NC(=O)[C@H](Cc1c[nH]c2ccccc12)NC(=O)[C@H](CCCNC(=N)N)NC(=O)[C@@H]1CSSC[C@H](N)C(=O)N[C@@H](C)C(=O)N[C@@H](CO)C(=O)N[C@@H](Cc2ccc(O)cc2)C(=O)N[C@@H](Cc2ccccc2)C(=O)N1)C(N)=O [Peptide S2] (H-CASYFCRWWWLL-NH2; disulfide 1-6; N-terminus assumed)
morphology and membrane integrity by SEM ([1]; at its MIC for 30 min): wrinkles, disrupted membrane integrity, and leakage of cell contents
morphology and internal structure by TEM ([1]; treatment for 30 min): the membrane of S. aureus was damaged, and a substantial outflow of cytoplasm was observed
cytoplasmic membrane depolarization (diSC3-5 fluorescence) [2]: rapid fluorescence intensity increase
GM-CSF levels in infected skin versus control group and Van group [3]: significantly higher
IL-6 generation in infected skin [4]: suppressed
TNF-α generation in infected skin [5]: suppressed
decrease in bacterial colonies at infection site versus control group ([6]; 100 μL injected at the infected site 1 h after infection, skin homogenate colony count after 24 h, P < 0.01): 10 fold
ulceration (lesion) size, length × width ([6]; 100 μL, 1 h after infection): significantly reduced ulceration sizes
MIC P. aeruginosa 27853 [7]: >64 µM
PI uptake (PI fluorescence) [8]: rapidly disrupted the bacterial membrane and caused PI uptake
